Where two headings read alike, the source gives them in different places.
How the values were obtained:
[1] = system: LPS-induced lung inflammation; assay: LPS-induced lung inflammation in mice (RT-qPCR of lung transcripts); format: in vivo, C57BL/6J mice; settings: male mice, 50 mg/kg i.p. 1 h before and 8 h after i.n. LPS 10 μg/mouse, 24 h
Method: FIG. 5: Effects of clofoctol treatment on LPS-induced lung inflammation. Male C57BL/6J mice were treated i.p. with clofoctol (50 mg/kg) or vehicle 1 h before and 8 h after i.n. inoculation of LPS (10 μg/mouse) or PBS. Animals were sacrificed 24 h after LPS inoculation. mRNA copy numbers of genes were quantified by RT-qPCR. Data are expressed as fold change over average gene expression in PBS-treated animals. Results are expressed as the mean±SD (n=6). Significant differences were determined using the Mann-Whitney U test (**p<0.01).
C57BL/6 mice were inoculated by the intra-nasal route with LPS (Escherichia coli 0111:B4) at 10 μg/mouse. Clofoctol was injected i.p. 1 h before and 8 h after LPS administration. Mice were sacrificed 24 hrs after LPS inoculation.

[2] = system: IAV H1N1 A/California/04/2009 (pdm09); assay: Long-term sequela (fibrosis) imposed by IAV infection in mice; settings: 50 mg/kg i.p. once a day for 4 days
[3] = system: IAV H1N1 A/California/04/2009 (pdm09); assay: IAV infection in mice: viral load, lung inflammation, pathology; format: in vivo, C57BL/6J mice; settings: 50 mg/kg i.p.
[4] = system: SARS-CoV-2; assay: In vitro antiviral activity (IC95) of clofoctol; format: cell-based
[5] = system: PMA-differentiated THP-1 macrophages; assay: LPS-induced cytokine expression in PMA-differentiated THP-1 macrophages (RT-qPCR and ELISA); format: cell-based, human; settings: clofoctol 1 hour prior to LPS 100 ng/mL
Method: FIG. 4: Effects of clofoctol treatment on LPS-induced cytokine mRNA expression by PMA-differentiated THP-1 macrophages. a, b, c and d) mRNA expression of MCP1, TNFα, IL-6 and IL-1β were quantified by RT-qPCR. Data are expressed as a fold-increase over the mean gene expression level in solvent control wells. (mean+/−SD from 3 experiments in duplicate). Significant differences were determined using the one-way ANOVA corrected for Dunnett's multiple comparisons test (**p<0.01; ***p<0.001, ****p<0.0001). ELISA of MCP1, TNFα and IL-6 (e, f and g) from supernatant of THP-1 cells pre-treated or not with Clofoctol or Dexamethasone and stimulated with LPS during 24 h. Results are expressed as the concentration of cytokine in pg/mL. (mean from one experiment in duplicate).
THP-1 designates a spontaneously immortalized monocyte-like cell line, derived from the peripheral blood of a childhood case of acute monocytic leukemia. Cells were cultivated in RPMI with HEPES without Glutamine complemented with 2 mM Glutamine, 10% FBS and 1% Penicillin/streptomycin and incubated at 37° C.-5% CO2. THP1 cells were used from passage 7 until passage 14 and they were negative for mycoplasma contamination, which was assessed with MycoAlert™ Mycoplasma Detection Kit (Lonza-Basel, Switzerland). […] In THP1, The levels of human cytokines were measured after 24 h of stimulation in the collected supernatants with human CCL2/MCP-1, IL-6 and TNF-α Duoset ELISA (R&D systems, Minneapolis, MN) according to the manufacturer's protocols.
Total RNA was extracted with NucleoSpin® RNA kit (Macherey-Nagel, Hoerdt, Germany). […] Relative quantification of MCP1, TNF-α, IL-6 and IL-1β was performed using the gene coding glyceraldehyde 3-phosphate dehydrogenase (GAPDH). Relative mRNA levels (2-ΔΔCt) were determined by comparing (a) the PCR cycle thresholds (Ct) for the gene of interest and the house keeping gene GAPDH (ΔCt) and (b) ΔCt values for treated and control groups (ΔΔCt). Data are expressed as a fold-increase over the mean gene expression level in solvent control wells.

[6] = system: SARS-COV-2; format: in vivo, K18-hACE2 transgenic C57BL/6J mice
[7] = system: MPI cells; assay: LPS-induced cytokine production by alveolar macrophage MPI cells (ELISA); format: cell-based, C57BL/6J mouse; settings: clofoctol added 30 minutes prior to LPS 10 ng/ml, 24 h, supernatant ELISA
Method: FIG. 3: Effects of clofoctol treatment on LPS-induced cytokine production by alveolar macrophages. ELISA of IL-1β, IL-12p40, TNFα, and MCP-1 from supernatant of MPI cells pre-treated or not with clofoctol and stimulated or not with LPS during 24 h. The percentage cell viability post treatment is indicated. Significant differences were determined using the two-way ANOVA corrected for Dunnett's multiple comparisons test (viability test) or one-way ANOVA corrected for Dunnett's multiple comparisons test (n=7-11) (**p<0.01; ***p<0.001, ****p<0.0001).
Max Plank Institute (MPI) cells are self-renewing and non-transformed cells originated from fetal liver of C57BL/6J mouse. MPI cells were used as a model of alveolar macrophages, due to their closer profile (Fejer et al., 2013). Cells were cultivated in RPMI Glutamax with 10% FBS, 1% Penicillin/streptomycin, and 30 ng/mL GM-CSF and incubated on 37° ° C.5% CO2. MPI cells were used from passage 6 until passage 30 and they were negative for mycoplasma contamination, which was assessed with MycoAlert™ Mycoplasma Detection Kit (Lonza-Basel, Switzerland). […] Cytokine production was measured from the supernatant of cells after 24 h of stimulation, accordingly to protocol's manufactures for IL-1β, IL-12p40, TNF-α, and MCP-1 (R&D Systems—Minneapolis, MN). […]

[8] = female C57BL/6 mice, single i.p. dose 62.5 mg/kg
[9] = female mice, day 4 post-infection

Question: With `CC(C)(C)CC(C)(C)c1ccc(O)c(Cc2ccc(Cl)cc2Cl)c1` [clofoctol, 2-[(2,4-dichlorophenyl)methyl]-4-(2,4,4-trimethylpentan-2-yl)phenol] as the compound, how does the “expression of transcripts encoding IL-6, TNFα, IL-1β, IFN-γ, IL12p40 and CCL2 in lungs” value [1] read?
Answer: markedly reduced

Question: What about the “lung fibrosis (Red Sirius staining)” value ([2]; 28 days post-infection) of the same compound?
Answer: tended to develop less fibrosis

Question: What about the body weight ([2]; IAV-infected mice) of the same compound?
Answer: reduces body weight

Question: What about the “clofoctol concentration in the lungs” value (62.5 mg/kg i.p. twice daily during two days, 1 h after the fourth administration) of the same compound?
Answer: 67 µM

Question: And the “plasma concentration relative to lung concentration” value [8]?
Answer: seven times lower

Question: And the “time lung concentration remained above this level (61 μM)” value [8]?
Answer: ~4 h

Question: What about the “clofoctol concentration in the lungs” value (female C57BL/6 mice, single i.p. dose 62.5 mg/kg, 30 min after injection) of the same compound?
Answer: up to 61 μM

Question: And the “IL-6 and IL-12p40 production in lungs” value ([3]; ELISA, 4 dpi)?
Answer: Reduced

Question: What about the “transcript expression of interferon-stimulated genes Mx1, ISG15 and Cxcl10” value ([3]; RT-qPCR) of the same compound?
Answer: reduced

Question: And the “viral RNA yields by RT-qPCR” value ([3]; day 2 and 4 post-infection)?
Answer: trend in reduced viral load

Question: What about the “infectious viral load in the lungs” value ([3]; day 2 and day 4 post-infection, titration on MDCK cells) of the same compound?
Answer: slightly reduced

Question: And the “expression of transcript encoding TNFα in lungs” value ([3]; day 2 post-infection, RT-qPCR)?
Answer: to a lower extent

Question: And the “expression of transcripts encoding IL-6, IL-12p40, Ccl2, IFN-γ in lungs” value ([3]; day 2 post-infection, RT-qPCR)?
Answer: reduced

Question: What about the “lung pathology (histology, inflammation scoring)” value ([3]; day 4 post-infection, hematoxylin and eosin) of the same compound?
Answer: only a minimal interstitial inflammation

Question: And the “IC95 measured in vitro” value [4]?
Answer: ~10 µM

Question: What about the “expression of MCP1 and IL-6 genes” value ([5]; 5 hours, RT-qPCR) of the same compound?
Answer: significantly reducing

Question: What about the “MCP1 and IL-6 protein in supernatant” value ([5]; 24 hours, ELISA) of the same compound?
Answer: significantly reducing

Question: And the “IL1-β and TNF-α expression/production” value ([5]; RT-qPCR (5 hours) and TNFα ELISA (24 hours))?
Answer: not significantly modulating

Question: And the “viral load by RT-qPCR” value ([6]; female mice treated during the first 2 days, day 4 post-inoculation)?
Answer: decrease in viral load

Question: What about the “viral RNA yields in lungs by RT-qPCR” value ([6]; female mice, 62.5 mg/kg i.p., day 2 post-infection) of the same compound?
Answer: reduced viral load

Question: And the “expression of transcripts encoding IL-6, TNFα, IL12p40, IFNβ, IFNγ and ISG Mx1, Ifi44, ISG15 in lungs” value ([6]; female mice, 62.5 mg/kg i.p., day 2 post-infection, RT-qPCR)?
Answer: markedly reduced

Question: And the “reduction of infectious viral load in the lungs vs vehicle” value ([6]; female mice, 62.5 mg/kg i.p., day 2 post-infection, titration on Vero-81 cells)?
Answer: more than 1.1 log10

Question: What about the “expression of transcripts encoding inflammatory markers” value [6, 9] of the same compound?
Answer: strongly decreased

Question: What about the “lung pathology (histology)” value [6, 9] of the same compound?
Answer: only a minimal interstitial inflammation

Question: What about the “inflammatory score of lung sections” value ([6]; female mice, day 4 post-infection, blinded scoring) of the same compound?
Answer: reduces the inflammatory score

Question: And the “infection-induced drop of Ocln and ZO1 transcript levels (epithelial barrier markers)” value ([6]; female mice, day 4 post-infection, lungs)?
Answer: significantly reduced

Question: What about the “production of inflammatory cytokines IL-1β, IL-12p40 and TNF-α” value [7] of the same compound?
Answer: inhibited, in a dose dependent manner

Reference: patent publication US20240238217A1, “USE OF CLOFOCTOL FOR THE TREATMENT OF INFLAMMATION” (INSTITUT NATIONAL DE LA SANTÉ ET DE LA RECHERCHE MÉDICALE, priority 2021, published 2024)
